#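 The concentration for 50% growth inhibition is given as GI50. Definition used: TGI = concentration required for complete inhibition of growth.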
# Legend:
# Experiment in all cases: NCI tumour cell line growth inhibition, 384-well format
# 786-0 renal = tested on: 786-0 renal
# A498 renal = tested on: A498 renal
# A549 NSCLC = tested on: A549 NSCLC
# ACHN renal = tested on: ACHN renal
# CAKI-1 renal = tested on: CAKI-1 renal
# COLO 205 colon = tested on: COLO 205 colon
# EKVX NSCLC = tested on: EKVX NSCLC
# HCC-2998 colon = tested on: HCC-2998 colon
# HCT-15 colon = tested on: HCT-15 colon
# HL-60(TB) leukemia = tested on: HL-60(TB) leukemia
# HOP-62 NSCLC = tested on: HOP-62 NSCLC
# HOP-92 NSCLC = tested on: HOP-92 NSCLC
# HT29 colon = tested on: HT29 colon
# IGROV1 ovarian = tested on: IGROV1 ovarian
# K-562 leukemia = tested on: K-562 leukemia
# LOX IMVI melanoma = tested on: LOX IMVI melanoma
# MALME-3M melanoma = tested on: MALME-3M melanoma
# MDA-MB-231 breast = tested on: MDA-MB-231 breast
# MDA-MB-468 breast = tested on: MDA-MB-468 breast
# MOLT-4 leukemia = tested on: MOLT-4 leukemia
# NCI-H226 lung = tested on: NCI-H226 lung
# NCI-H23 lung = tested on: NCI-H23 lung
# NCI-H322M lung = tested on: NCI-H322M lung
# NCI-H460 NSCLC = tested on: NCI-H460 NSCLC
# NCI-H522 lung = tested on: NCI-H522 lung
# NCI/ADR-RES ovarian = tested on: NCI/ADR-RES ovarian
# OVCAR-3 ovarian = tested on: OVCAR-3 ovarian
# OVCAR-4 ovarian = tested on: OVCAR-4 ovarian
# OVCAR-5 ovarian = tested on: OVCAR-5 ovarian
# OVCAR-8 ovarian = tested on: OVCAR-8 ovarian
# PC-3 prostate = tested on: PC-3 prostate
# RPMI-8226 leukemia = tested on: RPMI-8226 leukemia
# RXF 393 renal = tested on: RXF 393 renal
# SF-295 CNS = tested on: SF-295 CNS
# SK-MEL-2 melanoma = tested on: SK-MEL-2 melanoma
# SK-MEL-5 melanoma = tested on: SK-MEL-5 melanoma
# SN12C renal = tested on: SN12C renal
# SNB-19 CNS = tested on: SNB-19 CNS
# SNB-75 CNS = tested on: SNB-75 CNS
# SR leukemia = tested on: SR leukemia
# SW-620 colon = tested on: SW-620 colon
# T-47D breast = tested on: T-47D breast
# TK-10 renal = tested on: TK-10 renal
# U251 glioblastoma = tested on: U251 glioblastoma
# UACC-257 melanoma = tested on: UACC-257 melanoma
# UACC-62 melanoma = tested on: UACC-62 melanoma
# UO-31 renal = tested on: UO-31 renal
compound,measurement,setting,value
Cc1[nH]nc2ncc(C(=O)N3CCC[C@H]3c3ccc(Cl)cc3)cc12,GI50,786-0 renal,52.8 µM
same,TGI,786-0 renal,> 100 µM
same,GI50,A498 renal,39 µM
same,TGI,A498 renal,> 100 µM
same,GI50,A549 NSCLC,> 100 µM
same,TGI,A549 NSCLC,> 100 µM
same,GI50,ACHN renal,22.1 µM
same,TGI,ACHN renal,62 µM
same,GI50,CAKI-1 renal,> 100 µM
same,TGI,CAKI-1 renal,> 100 µM
same,GI50,COLO 205 colon,33.6 µM
same,TGI,COLO 205 colon,83.4 µM
same,GI50,EKVX NSCLC,> 100 µM
same,TGI,EKVX NSCLC,> 100 µM
same,GI50,HCC-2998 colon,32.3 µM
same,TGI,HCC-2998 colon,> 100 µM
same,GI50,HCT-15 colon,> 78.6 µM
same,TGI,HCT-15 colon,> 100 µM
same,GI50,HL-60(TB) leukemia,19.7 µM
same,TGI,HL-60(TB) leukemia,34.3 µM
same,GI50,HOP-62 NSCLC,> 54.9 µM
same,TGI,HOP-62 NSCLC,> 100 µM
same,GI50,HOP-92 NSCLC,> 55.6 µM
same,TGI,HOP-92 NSCLC,> 89.7 µM
same,GI50,HT29 colon,> 100 µM
same,TGI,HT29 colon,> 100 µM
same,GI50,IGROV1 ovarian,44.7 µM
same,TGI,IGROV1 ovarian,> 100 µM
same,GI50,K-562 leukemia,20.9 µM
same,TGI,K-562 leukemia,44.1 µM
same,GI50,LOX IMVI melanoma,60.6 µM
same,TGI,LOX IMVI melanoma,> 100 µM
same,GI50,MALME-3M melanoma,> 100 µM
same,TGI,MALME-3M melanoma,> 100 µM
same,GI50,MDA-MB-231 breast,> 100 µM
same,TGI,MDA-MB-231 breast,> 100 µM
same,GI50,MDA-MB-468 breast,21.2 µM
same,TGI,MDA-MB-468 breast,68.5 µM
same,GI50,MOLT-4 leukemia,25.5 µM
same,TGI,MOLT-4 leukemia,> 72.7 µM
same,GI50,NCI-H226 lung,39.1 µM
same,TGI,NCI-H226 lung,> 100 µM
same,GI50,NCI-H23 lung,36.6 µM
same,TGI,NCI-H23 lung,> 100 µM
same,GI50,NCI-H322M lung,> 100 µM
same,TGI,NCI-H322M lung,> 100 µM
same,GI50,NCI-H460 NSCLC,60.4 µM
same,TGI,NCI-H460 NSCLC,> 100 µM
same,GI50,NCI-H522 lung,21.3 µM
same,TGI,NCI-H522 lung,> 100 µM
same,GI50,NCI/ADR-RES ovarian,30.8 µM
same,TGI,NCI/ADR-RES ovarian,> 100 µM
same,GI50,OVCAR-3 ovarian,26.1 µM
same,TGI,OVCAR-3 ovarian,99.8 µM
same,GI50,OVCAR-4 ovarian,> 100 µM
same,TGI,OVCAR-4 ovarian,> 100 µM
same,GI50,OVCAR-5 ovarian,> 100 µM
same,TGI,OVCAR-5 ovarian,> 100 µM
same,GI50,OVCAR-8 ovarian,> 100 µM
same,TGI,OVCAR-8 ovarian,> 100 µM
same,GI50,PC-3 prostate,48.9 µM
same,TGI,PC-3 prostate,> 100 µM
same,GI50,RPMI-8226 leukemia,54.5 µM
same,TGI,RPMI-8226 leukemia,> 100 µM
same,GI50,RXF 393 renal,19.7 µM
same,TGI,RXF 393 renal,46.7 µM
same,GI50,SF-295 CNS,55.2 µM
same,TGI,SF-295 CNS,> 100 µM
same,GI50,SK-MEL-2 melanoma,25.3 µM
same,TGI,SK-MEL-2 melanoma,77.5 µM
same,GI50,SK-MEL-5 melanoma,50.8 µM
same,TGI,SK-MEL-5 melanoma,> 100 µM
same,GI50,SN12C renal,> 100 µM
same,TGI,SN12C renal,> 100 µM
same,GI50,SNB-19 CNS,> 100 µM
same,TGI,SNB-19 CNS,> 100 µM
same,GI50,SNB-75 CNS,> 78.1 µM
same,TGI,SNB-75 CNS,> 100 µM
same,GI50,SR leukemia,11.7 µM
same,TGI,SR leukemia,25 µM
same,GI50,SW-620 colon,30.9 µM
same,TGI,SW-620 colon,> 79.6 µM
same,GI50,T-47D breast,68.2 µM
same,TGI,T-47D breast,> 100 µM
same,GI50,TK-10 renal,80.6 µM
same,TGI,TK-10 renal,> 100 µM
same,GI50,U251 glioblastoma,51.7 µM
same,TGI,U251 glioblastoma,> 100 µM
same,GI50,UACC-257 melanoma,> 100 µM
same,TGI,UACC-257 melanoma,> 100 µM
same,GI50,UACC-62 melanoma,23.4 µM
same,TGI,UACC-62 melanoma,48.6 µM
same,GI50,UO-31 renal,46.6 µM
same,TGI,UO-31 renal,> 100 µM
